In the NIST ThermoML archive (doi:10.1016/j.tca.2016.05.001):
“And” between values parts separate entries of the source, which are not always exact repeats. Identical values can stand only once.

How the values were obtained:
[1] = Molar enthalpy of transition or fusion; settings: Crystal; DSC

c1ccc2nc3ccccc3nc2c1 [phenazine]
Settings | vapor or sublimation pressure
291.8 K, Crystal, Calculated from knudsen effusion weight loss | 9.4e-07 kPa
293.5 K, Crystal, Calculated from knudsen effusion weight loss | 1.3e-06 kPa
296.3 K, Crystal, Calculated from knudsen effusion weight loss | 1.6e-06 kPa
300.3 K, Crystal, Calculated from knudsen effusion weight loss | 2.9e-06 kPa
303.5 K, Crystal, Calculated from knudsen effusion weight loss | 4.7e-06 kPa
306.3 K, Crystal, Calculated from knudsen effusion weight loss | 6.1e-06 kPa
310.3 K, Crystal, Calculated from knudsen effusion weight loss | 1.1e-05 kPa
313.3 K, Crystal, Calculated from knudsen effusion weight loss | 1.81e-05 kPa
316.2 K, Crystal, Calculated from knudsen effusion weight loss | 2.24e-05 kPa and 2.6e-05 kPa
320.1 K, Crystal, Calculated from knudsen effusion weight loss | 3.8e-05 kPa and 4.6e-05 kPa
323.1 K, Crystal, Calculated from knudsen effusion weight loss | 6.6e-05 kPa
323.6 K, Crystal, Calculated from knudsen effusion weight loss | 6.5e-05 kPa
326.1 K, Crystal, Calculated from knudsen effusion weight loss | 8.9e-05 kPa
330 K, Crystal, Calculated from knudsen effusion weight loss | 0.00015 kPa
332.9 K, Crystal, Calculated from knudsen effusion weight loss | 0.000196 kPa
335.9 K, Crystal, Calculated from knudsen effusion weight loss | 0.000264 kPa
339.8 K, Crystal, Calculated from knudsen effusion weight loss | 0.0004 kPa
342.8 K, Crystal, Calculated from knudsen effusion weight loss | 0.00056 kPa
450.3 K, Liquid, Rate of evaporation | 2.018 kPa
451.4 K, Liquid, Rate of evaporation | 2.101 kPa
452.5 K, Liquid, Rate of evaporation | 2.186 kPa
454.8 K, Liquid, Rate of evaporation | 2.441 kPa
456.7 K, Liquid, Rate of evaporation | 2.618 kPa
458.9 K, Liquid, Rate of evaporation | 2.836 kPa
460.1 K, Liquid, Rate of evaporation | 3.041 kPa
462.6 K, Liquid, Rate of evaporation | 3.328 kPa
464.2 K, Liquid, Rate of evaporation | 3.533 kPa
466.7 K, Liquid, Rate of evaporation | 3.944 kPa
469.1 K, Liquid, Rate of evaporation | 4.316 kPa

Settings | Triple point temperature [K]
Crystal, DSC | 446.4

Settings | Molar enthalpy of transition or fusion [kcal/mol]
[1] | 4.61
